Source: US7834023B2 (Portola Pharmaceuticals, Inc., priority 2006, dated 2010)

Biological target: T1, P2Y12 receptor (Homo sapiens, UniProt Q9H244)
T1 construct: endogenous in cells; host or cells: human platelets (outdated from blood banks or fresh), apyrase-washed, whole
Assay: platelet ADP receptor binding assay (ARB): inhibition of [3H]2-MeS-ADP binding to platelets
Details: [3H]2-MeS-ADP binding to apyrase-washed human platelets
Procedure: 1. The Ability of Candidate Molecules to Inhibit the Binding of [^3H]2-MeS-ADP to the […] Receptor on Platelets was Determined Using a Radioligand Binding Assay.
Utilizing this assay the potency of inhibition of such compounds with respect to [^3H]2-MeS-ADP binding to whole platelets is determined. Under the conditions described in II (3) below, the binding of [^3H]2-MeS-ADP is solely due to the interaction of this ligand with the P2Y12 receptor, in that all the specific binding measured in this assay is competable with a P2Y12 antagonist (i.e., the specific binding is reduced to background levels by competition with an excess of P2Y12 antagonist, with no competition of binding when a P2Y1 antagonist is pre-incubated with the platelet preparation). [^3H]2-MeS-ADP binding experiments are routinely performed with outdated human platelets collected by standard procedures at hospital blood banks. Apyrase-washed outdated platelets are prepared as follows (all steps at room temperature, if not indicated otherwise):
Outdated platelet suspensions are diluted with 1 volume of CGS and platelets pelleted by centrifugation at 1900×g for 45 minutes. Platelet pellets are resuspended at 3-6×10^9 platelets/ml in CGS containing 1 U/ml apyrase (grade V, Sigma, St. Louis, Mo.) and incubated for 15 minutes at 37° C. After centrifugation at 730×g for 20 minutes, pellets are resuspended in Hepes-Tyrode's buffer containing 0.1% BSA (Sigma, St. Louis, Mo.) at a concentration of 6.66×10^8 platelets/ml. Binding experiments are performed after >45 minutes resting of the platelets.
Alternatively, binding experiments are performed with fresh human platelets prepared as described in section I (Inhibition of ADP-Mediated Platelet Aggregation in vitro), except that platelets are resuspended in Hepes-Tyrode's buffer containing 0.1% BSA (Sigma, St. Louis, Mo.) at a concentration of 6.66×10^8 platelets/mil. Very similar results are obtained with fresh and outdated platelets.
A platelet ADP receptor binding assay (ARB) using the tritiated potent agonist ligand [^3H]2-MeS-ADP (Jantzen, H. M. et al. (1999) Thromb. Hemost. 81:111-117) has been adapted to the 96-well microtiter format. In an assay volume of 0.2 ml Hepes-Tyrode's buffer with 0.1% BSA and 0.6% DMSO, 1×10^8 apyrase-washed platelets are preincubated in 96-well flat bottom microtiter plates for 5 minutes with serial dilutions of test compounds before addition of 1 nM [^3H]2-MeS-ADP ([^3H]2-methylthioadenosine-5′-diphosphate, ammonium salt; specific activity 20-50 Ci/mmole, obtained by custom synthesis from Amersham Life Science, Inc., Arlington Heights, Ill., or NEN Life Science Products, Boston, Mass.). Total binding is determined in the absence of test compounds. Samples for nonspecific binding may contain 10 μM unlabelled 2-MeS-ADP (RBI, Natick, Mass.). After incubation for 15 minutes at room temperature, unbound radioligand is separated by rapid filtration and two washes with cold (4-8° C.) Binding Wash Buffer (10 mM Hepes pH 7.4, 138 mM NaCl) using a 96-well cell harvester (Minidisc 96, Skatron Instruments, Sterling, Va.) and 8×12 GF/C glassfiber filtermats (Printed Filtermat A, for 1450 Microbeta, Wallac Inc., Gaithersburg, Md.). The platelet-bound radioactivity on the filtermats is determined in a scintillation counter (Microbeta 1450, Wallac Inc., Gaithersburg, Md.). Specific binding is determined by subtraction of non-specific binding from total binding, and specific binding in the presence of test compounds is expressed as % of specific binding in the absence of test compound dilutions. IC50s were derived by non-linear regression analysis.

T1 sequence (Q9H244 whole entry): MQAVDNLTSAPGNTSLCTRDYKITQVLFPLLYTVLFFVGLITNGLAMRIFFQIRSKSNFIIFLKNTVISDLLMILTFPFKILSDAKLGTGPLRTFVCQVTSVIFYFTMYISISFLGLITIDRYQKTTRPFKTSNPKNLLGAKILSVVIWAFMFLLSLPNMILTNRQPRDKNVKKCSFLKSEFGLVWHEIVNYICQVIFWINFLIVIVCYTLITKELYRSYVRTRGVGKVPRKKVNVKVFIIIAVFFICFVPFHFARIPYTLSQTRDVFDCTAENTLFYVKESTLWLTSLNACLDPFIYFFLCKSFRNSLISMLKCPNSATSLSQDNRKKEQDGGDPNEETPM

IC50 [nM]	SMILES
50 to 500	CNc1cc2[nH]c(=O)n(-c3ccc(C(=O)NC(c4nsc(=O)[nH]4)c4ccc(Cl)s4)cc3)c(=O)c2cc1F (centres unmarked) [Compound 25, N-((5-chlorothiophen-2-yl)(5-oxo-4,5-dihydro-1,2,4-thiadiazol-3-yl)methyl)-4-(6-fluoro-7-(methylamino)-2,4-dioxo-1,2-dihydroquinazolin-3(4H)-yl)benzamide]
50 to 500	O=C(NC(Cc1cccs1)C(=O)O)c1ccc(-n2c(=O)[nH]c3cc(NCc4ccc(F)cc4)ccc3c2=O)cc1 (centres unmarked) [Compound 3, 2-(4-(7-(4-fluorobenzylamino)-2,4-dioxo-1,2-dihydroquinazolin-3(4H)-yl)benzamido)-3-(thiophen-2-yl)propanoic acid]
50 to 500	CNc1cc2[nH]c(=O)n(-c3ccc(C(=O)NC(C(=O)O)c4ccc(Cl)s4)c(Cl)c3)c(=O)c2cc1F (centres unmarked) [Compound 43, 2-(2-chloro-4-(6-fluoro-7-(methylamino)-2,4-dioxo-1,2-dihydroquinazolin-3(4H)-yl)benzamido)-2-(5-chlorothiophen-2-yl)acetic acid]
< 50	O=C(NCc1ccc(Cl)s1)Nc1ccc(-n2c(=O)[nH]c3cc(NCc4ccc(F)cc4)ccc3c2=O)cc1 [Compound 107, 1-((5-chlorothiophen-2-yl)methyl)-3-(4-(7-(4-fluorobenzylamino)-2,4-dioxo-1,2-dihydroquinazolin-3(4H)-yl)phenyl)urea]
> 500	CNc1cc2[nH]c(=O)n(-c3ccc(C(=O)NC(Cc4cccs4)C(=O)O)cc3)c(=O)c2cc1F (centres unmarked) [Compound 9, 2-(4-(6-fluoro-7-(methylamino)-2,4-dioxo-1,2-dihydroquinazolin-3(4H)-yl)benzamido)-3-(thiophen-2-yl)propanoic acid]
> 500	CNc1cc2[nH]c(=O)n(-c3ccc(C(=O)N(CCC(=O)O)Cc4ccc(Cl)s4)cc3)c(=O)c2cc1F [Compound 40, 3-(N-((5-chlorothiophen-2-yl)methyl)-4-(6-fluoro-7-(methylamino)-2,4-dioxo-1,2-dihydroquinazolin-3(4H)-yl)benzamido)propanoic acid]
> 500	CNc1cc2[nH]c(=O)n(-c3ccc(C(=O)NC(c4ccc(Cl)cc4)c4nnn[nH]4)cc3)c(=O)c2cc1F (centres unmarked) [Compound 12, N-((4-chlorophenyl)(1H-tetrazol-5-yl)methyl)-4-(6-fluoro-7-(methylamino)-2,4-dioxo-1,2-dihydroquinazolin-3(4H)-yl)benzamide]
> 500	O=C(NC(C(=O)O)c1cccs1)c1ccc(-n2ccc3ccccc3c2=O)cc1 (centres unmarked) [Compound 97, 2-(4-(1-oxoisoquinolin-2(1H)-yl)benzamido)-2-(thiophen-2-yl)acetic acid]
> 500	CNc1cc2[nH]c(=O)n(-c3ccc(C(=O)NC(C(=O)O)c4ccc(Cl)s4)cc3OC)c(=O)c2cc1F (centres unmarked) [Compound 51, 2-(5-chlorothiophen-2-yl)-2-(4-(6-fluoro-7-(methylamino)-2,4-dioxo-1,2-dihydroquinazolin-3(4H)-yl)-3-methoxybenzamido)acetic acid]
> 500	Cc1ccc2c(c1)OCN(c1ccc(C(=O)NC(C(=O)O)c3ccc(Cl)s3)cc1)C2=O (centres unmarked) [Compound 69, 2-(5-chlorothiophen-2-yl)-2-(4-(7-methyl-4-oxo-2H-benzo[e][1,3]oxazin-3(4H)-yl)benzamido)acetic acid]
50 to 500	CNc1cc2c(cc1F)C(=O)N(c1ccc(CC(=O)NC(C(=O)OC)c3ccc(Cl)s3)cc1)CO2 (centres unmarked) [Compound 118, methyl 2-(5-chlorothiophen-2-yl)-2-(2-(4-(6-fluoro-7-(methylamino)-4-oxo-2H-benzo[e][1,3]oxazin-3(4H)-yl)phenyl)acetamido)acetate]
50 to 500	CNc1cc2c(cc1F)C(=O)N(c1ccc(C(=O)N[C@H](C(=O)O)c3ccccc3)cc1)CO2 [Compound 65, (S)-2-(4-(6-fluoro-7-(methylamino)-4-oxo-2H-benzo[e][1,3]oxazin-3(4H)-yl)benzamido)-2-phenylacetic acid]
50 to 500	CCc1ccc2c(c1)OCN(c1ccc(C(=O)NC(C(=O)O)c3ccc(Cl)s3)cc1)C2=O (centres unmarked) [Compound 78, 2-(5-chlorothiophen-2-yl)-2-(4-(7-ethyl-4-oxo-2H-benzo[e][1,3]oxazin-3(4H)-yl)benzamido)acetic acid]
> 500	CNc1cc2c(cc1F)C(=O)N(c1ccc(C(=O)N(CCC(=O)O)Cc3ccc(Cl)s3)cc1)CO2 [Compound 86, 3-(N-((5-chlorothiophen-2-yl)methyl)-4-(6-fluoro-7-(methylamino)-4-oxo-2H-benzo[e][1,3]oxazin-3(4H)-yl)benzamido)propanoic acid]
> 500	CNc1cc2[nH]c(=O)n(-c3ccc(C(=O)NC(c4cccc(OC)c4)c4nnn[nH]4)cc3)c(=O)c2cc1F (centres unmarked) [Compound 23, 4-(6-fluoro-7-(methylamino)-2,4-dioxo-1,2-dihydroquinazolin-3(4H)-yl)-N-((3-methoxyphenyl)(1H-tetrazol-5-yl)methyl)benzamide]
> 500	CNc1cc2c(cc1F)C(=O)N(c1ccc(CC(=O)NC(C(=O)O)c3ccc(Cl)s3)cc1)CO2 (centres unmarked) [Compound 114, 2-(5-chlorothiophen-2-yl)-2-(2-(4-(6-fluoro-7-(methylamino)-4-oxo-2H-benzo[e][1,3]oxazin-3(4H)-yl)phenyl)acetamido)acetic acid]
50 to 500	CNc1cc2c(cc1F)C(=O)N(c1ccc(C(=O)NC(C(=O)O)c3ccccc3)cc1)CO2 (centres unmarked) [Compound 58, 2-(4-(6-fluoro-7-(methylamino)-4-oxo-2H-benzo[e][1,3]oxazin-3(4H)-yl)benzamido)-2-phenylacetic acid]
50 to 500	CNc1cc2c(cc1F)C(=O)N(c1ccc(C(=O)NC(c3ccc(Cl)s3)c3nnnn3C)cc1)CO2 (centres unmarked) [Compound 73, N-((5-chlorothiophen-2-yl)(1-methyl-1H-tetrazol-5-yl)methyl)-4-(6-fluoro-7-(methylamino)-4-oxo-2H-benzo[e][1,3]oxazin-3(4H)-yl)benzamide]
> 500	CNc1cc2[nH]c(=O)n(-c3ccc(NC(=O)NC(C(=O)O)c4ccc(Cl)s4)cc3)c(=O)c2cc1F (centres unmarked) [Compound 110, 2-(5-chlorothiophen-2-yl)-2-(3-(4-(6-fluoro-7-(methylamino)-2,4-dioxo-1,2-dihydroquinazolin-3(4H)-yl)phenyl)ureido)acetic acid]
50 to 500	CNc1cc2c(cc1F)C(=O)N(c1ccc(C(=O)NC(c3ccc(Cl)s3)c3nc(C)cs3)cc1)CO2 (centres unmarked) [Compound 85, N-((5-chlorothiophen-2-yl)(4-methylthiazol-2-yl)methyl)-4-(6-fluoro-7-(methylamino)-4-oxo-2H-benzo[e][1,3]oxazin-3(4H)-yl)benzamide]
> 500	O=C(NC(C(=O)O)c1ccc(Cl)s1)c1ccc(-n2c(=O)[nH]c3ccccc3c2=O)cc1 (centres unmarked) [Compound 33, 2-(5-chlorothiophen-2-yl)-2-(4-(2,4-dioxo-1,2-dihydroquinazolin-3(4H)-yl)benzamido)acetic acid]
> 500	CNc1cc2c(cc1F)C(=O)N(c1ccc(CC(=O)NC(C(=O)N(C)C)c3ccc(Cl)s3)cc1)CO2 (centres unmarked) [Compound 120, 2-(5-chlorothiophen-2-yl)-2-(2-(4-(6-fluoro-7-(methylamino)-4-oxo-2H-benzo[e][1,3]oxazin-3(4H)-yl)phenyl)acetamido)-N,N-dimethylacetamide]
< 50	CNc1cc2c(cc1F)C(=O)N(c1ccc(C(=O)N[C@H](c3nnn[nH]3)c3ccc(Cl)s3)cc1)CO2 [Compound 89, (R)-N-((5-chlorothiophen-2-yl)(1H-tetrazol-5-yl)methyl)-4-(6-fluoro-7-(methylamino)-4-oxo-2H-benzo[e][1,3]oxazin-3(4H)-yl)benzamide]
